Results: US20260092179A1, “GENETICALLY MODIFIED HOST CELLS PRODUCING VIOLACEIN, ANALOGUES, AND DERIVATIVES THEREOF” (OCTARINE BIO APS, priority 2022, published 2026)

How the values were obtained:
[1] = Alkaline pH stability of dyed fabrics (colour fastness, ΔE); assay type: physicochemical; settings: pH 8 with NaOH
Protocol: (§1) In order to assess the stability and colour fastness of violacein and violacein derivatives dyed onto fabrics, dyed fabrics were subjected to a number of conditions. Fabrics were dyed according to Example 18 and colour coordinates and colour change before and after exposure to a given condition were determined as described in Example 18. To measure temperature stability, fabrics were incubated in an oven set to 80° c. for 4 h. To measure stability under acid and alkaline conditions, fabrics were fully submerged in water solutions set to pH 8 with NaOH and pH 5 with HCl and incubated at room temperature for 30 minutes. Fabrics were then incubated at 37° c. for 4 h. To measure stability during laundering, fabrics were washed at 30° c. under the “mix” setting of a Siemens IQ300 washing machine, then dried in a Siemens IQ300 dryer until dry. To measure artificial light stability, fabrics were placed under an LED lamp at room temperature for 16 h. To measure UV light stability, fabrics were placed under a UV lamp at room temperature for 1 h.

[2] = Acidic pH stability of dyed fabrics (colour fastness, ΔE); assay type: physicochemical; settings: pH 5 with HCl
Protocol: as §1

[3] = system: S. cerevisiae S228c; assay: Antimicrobial activity of dyed Nylon 6,6 fabric: final OD600 and % inhibition; assay type: cell-based
Protocol: (§2) Violacein is reported as being a potent antibiotic, capable of inhibiting the growth of a wide range of microbial kingdoms including bacteria, yeast, fungi, viruses, protozoa and nematode. […] To test this, overnight cultures of wild-type E. coli DH5a and S. cerevisiae S228c strains were diluted in 5 mL of cultivation media (LB for E. coli, minimal media for S. cerevisiae) to a starting OD600 of 0.1. 1.5×1.5 cm dyed Nylon 6,6 fabric strips were sterilized by submerging in 75% ethanol for 15 mins and air drying in a laminar air flow hood before adding to each culture (with undyed Nylon 6,6 fabric as a negative control). […] This experiment provides evidence that all violacein derivatives display antimicrobial properties.

[4] = system: E. coli DH5a; assay: as above; assay type: cell-based
Protocol: as §2

[5] = UV stability of dyed fabrics (colour fastness, ΔE); assay type: physicochemical; settings: for ΔE: before vs after UV lamp, room temperature, 1 h
Protocol: as §1

[6] = Acrylic, before and after the stability test
[7] = Bleached cotton, before and after the stability test
[8] = Diacetate, before and after the stability test
[9] = Nylon 6,6, before and after the stability test
[10] = Polyester, before and after the stability test
[11] = Wool, before and after the stability test
[12] = Acrylic, after test (UV lamp, room temperature, 1 h)
[13] = Bleached cotton, after test (UV lamp, room temperature, 1 h)
[14] = Diacetate, after test (UV lamp, room temperature, 1 h)
[15] = Nylon 6,6, after test (UV lamp, room temperature, 1 h)
[16] = Polyester, after test (UV lamp, room temperature, 1 h)
[17] = Wool, after test (UV lamp, room temperature, 1 h)

## O=C1NC(c2c[nH]c3ccccc23)=C/C1=C1\C(=O)Nc2ccccc21 [deoxyviolacein]
[1]; Acrylic, After test
  L: 59.52
  a: 0.99
  b: −2.75
[1]; Acrylic, Before test
  L: 60.91
  a: 1.48
  b: −2.6
[1]; [6]
  ΔE: 1.48
[1]; Bleached cotton, After test
  L: 62.83
  a: 2.23
  b: −8.43
[1]; Bleached cotton, Before test
  L: 61.33
  a: 1.92
  b: −9.6
[1]; [7]
  ΔE: 1.93
[1]; Diacetate, After test
  L: 53.77
  a: 9.48
  b: −13.38
[1]; Diacetate, Before test
  L: 53.4
  a: 9.48
  b: −14.88
[1]; [8]
  ΔE: 1.54
[1]; Nylon 6,6, After test
  L: 46
  a: 4.44
  b: −20.31
[1]; Nylon 6,6, Before test
  L: 45.47
  a: 6.49
  b: −22.12
[1]; [9]
  ΔE: 2.79
[1]; Polyester, After test
  L: 67.22
  a: 2.02
  b: −3.88
[1]; Polyester, Before test
  L: 66.7
  a: 1.3
  b: −4.19
[1]; [10]
  ΔE: 0.94
[1]; Wool, After test
  L: 66.95
  a: 0.82
  b: −0.41
[1]; Wool, Before test
  L: 65.33
  a: 0.19
  b: 0.13
[1]; [11]
  ΔE: 1.82
[2]; Acrylic, After test
  L: 59.8
  a: 2.01
  b: −3.77
[2]; Acrylic, Before test
  L: 58.82
  a: 2.34
  b: −2.86
[2]; [6]
  ΔE: 1.38
[2]; Bleached cotton, After test
  L: 60.27
  a: 0.74
  b: −8.67
[2]; Bleached cotton, Before test
  L: 58.08
  a: 1.02
  b: −7.23
[2]; [7]
  ΔE: 2.64
[2]; Diacetate, After test
  L: 46.41
  a: 12.25
  b: −16.83
[2]; Diacetate, Before test
  L: 46.86
  a: 12.01
  b: −17.99
[2]; [8]
  ΔE: 1.27
[2]; Nylon 6,6, After test
  L: 44.46
  a: 6.37
  b: −22.27
[2]; Nylon 6,6, Before test
  L: 43
  a: 5.21
  b: −20.47
[2]; [9]
  ΔE: 2.59
[2]; Polyester, After test
  L: 64.95
  a: 2.03
  b: −5.57
[2]; Polyester, Before test
  L: 62.77
  a: 2
  b: −5.04
[2]; [10]
  ΔE: 2.24
[2]; Wool, After test
  L: 64.01
  a: 0.41
  b: −0.81
[2]; Wool, Before test
  L: 63.73
  a: 0.62
  b: −0.94
[2]; [11]
  ΔE: 0.37
[3]; S. cerevisiae cultured overnight at 30° c. with dyed Nylon 6,6 fabric strip, starting OD600 0.1
  Final OD600: 4.99
[3]; S. cerevisiae, dyed Nylon 6,6 fabric vs undyed fabric control
  % Inhibition: 6.90%
[4]; E. coli cultured overnight at 30° c. with dyed Nylon 6,6 fabric strip, starting OD600 0.1
  Final OD600: 4.62
[4]; E. coli, dyed Nylon 6,6 fabric vs undyed fabric control
  % Inhibition: 11.45%
[5]; [12]
  L: 61.34
  a: 2.05
  b: −2.89
[5]; Acrylic, before test
  L: 60.15
  a: 1.07
  b: −2.07
[5]; Acrylic
  ΔE: 1.75
[5]; [13]
  L: 62.17
  a: 1.62
  b: −6.68
[5]; Bleached cotton, before test
  L: 61.4
  a: 1.8
  b: −7.92
[5]; Bleached cotton
  ΔE: 1.47
[5]; [14]
  L: 53.68
  a: 8.75
  b: −10.95
[5]; Diacetate, before test
  L: 52.05
  a: 9.98
  b: −14.88
[5]; Diacetate
  ΔE: 4.43
[5]; [15]
  L: 46.19
  a: 4.4
  b: −19.75
[5]; Nylon 6,6, before test
  L: 45.92
  a: 4.94
  b: −21.23
[5]; Nylon 6,6
  ΔE: 1.60
[5]; [16]
  L: 67.09
  a: 1.19
  b: −3.68
[5]; Polyester, before test
  L: 66.55
  a: 1.03
  b: −2.87
[5]; Polyester
  ΔE: 0.99
[5]; [17]
  L: 67.65
  a: 0.75
  b: 1.17
[5]; Wool, before test
  L: 65.56
  a: 0.65
  b: 0.31
[5]; Wool
  ΔE: 2.26
